These are literature values, as cited in PMC9516332 (Frontiers in Oncology, 2022).

Each structure is given as a SMILES string. Where two headings read alike, the source gives them in different places.

Data set [1] concerns the target panel of 255 wild-type kinases (Homo sapiens, UniProt P07947). To be noted: kinase YES, 1 µmol/L single concentration, cited from earlier work.
The target of data set [2] is panel of 255 wild-type kinases (Homo sapiens, UniProt P49841). To be noted: kinase GSK3β, 1 µmol/L single concentration, cited from earlier work.
The target of data set [3] is panel of 255 wild-type kinases (Homo sapiens, UniProt P54646). The following applies: AMPKα2/β1/γ1 kinase assay, 1 µmol/L single concentration, cited from earlier work.
The target of data set [4] is panel of 255 wild-type kinases (Homo sapiens, UniProt P54756). To be noted: kinase EPHA5, 1 µmol/L single concentration, cited from earlier work.
In data set [5] the target is T1, panel of 255 wild-type kinases (Homo sapiens, UniProt Q06418).
T1 sequence (Q06418 41-890): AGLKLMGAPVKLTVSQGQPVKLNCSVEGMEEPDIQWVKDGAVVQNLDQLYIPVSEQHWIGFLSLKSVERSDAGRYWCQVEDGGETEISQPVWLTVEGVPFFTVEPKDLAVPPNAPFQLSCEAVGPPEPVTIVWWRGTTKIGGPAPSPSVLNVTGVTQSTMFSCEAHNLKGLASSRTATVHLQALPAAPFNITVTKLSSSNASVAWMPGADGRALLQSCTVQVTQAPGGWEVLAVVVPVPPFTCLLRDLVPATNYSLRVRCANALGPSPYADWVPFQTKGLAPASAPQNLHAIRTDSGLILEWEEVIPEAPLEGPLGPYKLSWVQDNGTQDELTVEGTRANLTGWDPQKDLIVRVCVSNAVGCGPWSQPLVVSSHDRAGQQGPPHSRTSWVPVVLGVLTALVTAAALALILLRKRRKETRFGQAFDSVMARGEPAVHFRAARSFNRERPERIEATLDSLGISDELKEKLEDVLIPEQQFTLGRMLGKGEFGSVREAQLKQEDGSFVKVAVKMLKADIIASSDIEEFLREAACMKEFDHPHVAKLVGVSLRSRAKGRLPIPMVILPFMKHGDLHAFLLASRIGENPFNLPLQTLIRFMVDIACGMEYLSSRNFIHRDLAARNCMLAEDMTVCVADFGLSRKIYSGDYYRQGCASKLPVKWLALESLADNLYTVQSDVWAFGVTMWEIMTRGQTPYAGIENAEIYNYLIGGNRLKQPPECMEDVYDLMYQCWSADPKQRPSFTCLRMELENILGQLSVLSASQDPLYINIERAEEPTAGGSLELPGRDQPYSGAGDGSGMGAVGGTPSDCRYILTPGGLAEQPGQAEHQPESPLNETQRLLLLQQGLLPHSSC
To be noted: kinase TYRO3, 1 µmol/L single concentration, cited from earlier work.

The target in data set [6] is panel of 255 wild-type kinases (Homo sapiens, UniProt Q15349). To be noted: kinase RSK3, 1 µmol/L single concentration, cited from earlier work.
For data set [7], the target named is panel of 255 wild-type kinases (Homo sapiens, UniProt Q7KZI7). The following applies: MARK2, 1 µmol/L single concentration, cited from earlier work.
The target in data set [8] is T2, panel of 255 wild-type kinases (Homo sapiens, UniProt Q9BZL6).
T2 sequence (Q9BZL6 1-878): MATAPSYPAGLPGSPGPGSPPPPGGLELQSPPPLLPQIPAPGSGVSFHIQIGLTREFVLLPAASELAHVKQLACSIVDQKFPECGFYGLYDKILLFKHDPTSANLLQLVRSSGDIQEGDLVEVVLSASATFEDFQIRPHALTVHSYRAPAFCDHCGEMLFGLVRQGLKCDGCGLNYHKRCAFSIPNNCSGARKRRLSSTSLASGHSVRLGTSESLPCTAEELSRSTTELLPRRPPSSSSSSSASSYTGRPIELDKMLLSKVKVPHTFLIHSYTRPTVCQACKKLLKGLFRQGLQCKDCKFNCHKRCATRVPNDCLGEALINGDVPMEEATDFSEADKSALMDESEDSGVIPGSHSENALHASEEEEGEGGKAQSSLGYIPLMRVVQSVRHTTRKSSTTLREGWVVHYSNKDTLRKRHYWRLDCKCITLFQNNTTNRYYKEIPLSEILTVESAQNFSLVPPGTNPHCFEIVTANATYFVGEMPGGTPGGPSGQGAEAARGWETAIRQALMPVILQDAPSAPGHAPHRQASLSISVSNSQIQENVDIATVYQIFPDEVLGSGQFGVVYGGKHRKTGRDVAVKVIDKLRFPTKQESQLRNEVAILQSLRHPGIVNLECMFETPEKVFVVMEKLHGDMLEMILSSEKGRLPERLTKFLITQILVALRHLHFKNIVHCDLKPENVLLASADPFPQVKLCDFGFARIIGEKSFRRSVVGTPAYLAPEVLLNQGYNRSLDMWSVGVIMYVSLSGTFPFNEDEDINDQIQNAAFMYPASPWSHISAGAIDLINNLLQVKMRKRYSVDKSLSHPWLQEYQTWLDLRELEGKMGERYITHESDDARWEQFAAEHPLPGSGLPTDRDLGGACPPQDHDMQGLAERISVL
To be noted: kinase PKD2, 1 µmol/L single concentration, cited from earlier work.

Data set [9] deals with panel of 255 wild-type kinases (Homo sapiens, UniProt Q9HCP0). The following applies: kinase CK1γ1, 1 µmol/L single concentration, cited from earlier work.
The target of data set [10] is panel of 255 wild-type kinases (Homo sapiens, UniProt Q9Y6M4). To be noted: kinase CK1γ3, 1 µmol/L single concentration, cited from earlier work.
Setting [11] is: ref DOI: 10.1158/1535-7163.MCT-18-0877.
[12] abbreviates: ref DOI: 10.1371/journal.pone.0092146.

For `O=C(c1ccc(F)c(F)c1Nc1ccc(I)cc1F)N1CC(O)([C@@H]2CCCCN2)C1` [cobimetinib], in [1] (setting [11]), the “%-inhibition at 1 µmol/L, YES” value is given as -0.706%. For the same molecule, the “%-inhibition at 1 µmol/L, GSK3β” value in [2] (setting [11]) is -2.44%. Also, the “%-inhibition AMPKα2/β1/γ1” value in data set [3] (setting [11]) was 9%. In addition, the “%-inhibition at 1 µmol/L, EPHA5” value in data set [4] (setting [11]) was 1.26%. The “%-inhibition at 1 µmol/L, TYRO3” value in data set [5] (setting [11]) is 4.55%. The “%-inhibition at 1 µmol/L, RSK3” value in data set [6] (setting [11]) was 8%. In addition, the “%-inhibition, MARK2” value in data set [7] (setting [11]) was -6.58%. The “%-inhibition at 1 µmol/L, PKD2” value in [8] (setting [11]) is recorded as -11%. Further, in data set [9] (setting [11]), the “%-inhibition at 1 µmol/L, CK1γ1” value is given as 2.67%. For the same molecule, in data set [10] (setting [11]), the “%-inhibition at 1 µmol/L, CK1γ3” value was 6%.
For `C=CC(=O)Nc1cc(Nc2nccc(-c3cn(C)c4ccccc34)n2)c(OC)cc1N(C)CCN(C)C` [osimertinib], the “%-inhibition at 1 µmol/L, YES” value in data set [1] (setting [11]) is reported as 13%. For the same molecule, the “%-inhibition at 1 µmol/L, GSK3β” value in data set [2] (setting [11]) is -4%. Besides, the “%-inhibition AMPKα2/β1/γ1” value in [3] (setting [11]) was 11%. The “%-inhibition at 1 µmol/L, EPHA5” value in [4] (setting [11]) is listed as -0.189%. The “%-inhibition at 1 µmol/L, TYRO3” value in [5] (setting [11]) is recorded as 8%. Moreover, in [6] (setting [11]), the “%-inhibition at 1 µmol/L, RSK3” value is listed as 53%. Further, the “%-inhibition, MARK2” value in data set [7] (setting [11]) is recorded as 26%. Further, the “%-inhibition at 1 µmol/L, PKD2” value in data set [8] (setting [11]) is 16%. The “%-inhibition at 1 µmol/L, CK1γ1” value in [9] (setting [11]) is reported as 10%. In addition, the “%-inhibition at 1 µmol/L, CK1γ3” value in [10] (setting [11]) is reported as 13%.
For `CCCS(=O)(=O)Nc1ccc(F)c(C(=O)c2c[nH]c3ncc(-c4ccc(Cl)cc4)cc23)c1F` [vemurafenib], in [1] (setting [12]), the “%-inhibition at 1 µmol/L, YES” value is listed as 74%. Further, the “%-inhibition at 1 µmol/L, GSK3β” value in data set [2] (setting [12]) is 8%. Moreover, in data set [3] (setting [12]), the “%-inhibition AMPKα2/β1/γ1” value was 6.49%. Moreover, the “%-inhibition at 1 µmol/L, EPHA5” value in data set [4] (setting [12]) is 14%. In data set [5] (setting [12]), the “%-inhibition at 1 µmol/L, TYRO3” value is 3.16%. In addition, the “%-inhibition at 1 µmol/L, RSK3” value in data set [6] (setting [12]) was -0.497%. In [7] (setting [12]), the “%-inhibition, MARK2” value is reported as -0.167%. In [8] (setting [12]), the “%-inhibition at 1 µmol/L, PKD2” value is on record as -13%. For the same molecule, the “%-inhibition at 1 µmol/L, CK1γ1” value in [9] (setting [12]) is given as -2%. Also, the “%-inhibition at 1 µmol/L, CK1γ3” value in [10] (setting [12]) was 2.14%.
